From publication PMC9231222 (Viruses, 2022)
Entries after “also recorded” stand apart in the source; their conditions may differ.

How the values were obtained:
[1] = Cytotoxicity assay (MTT) in mock-infected MDBK cells; type: cell-based; conditions: cattle (Bos taurus); concentration reducing viability of mock-infected MDBK cells by 50%, MTT method
BVDV [2] = test: Antiviral assay: inhibition of BVDV-induced cytopathogenicity in MDBK cells; type: cell-based; conditions: Bovine viral diarrhea virus isolates and strains, in Bos taurus, 72 h, read-out: BVDV EC50
BVDV [3] = test: Time of drug addition assay in BVDV-infected MDBK cells (plaque reduction titer); type: cell-based, Bovine Viral Diarrhoea Virus (BVDV); conditions: along the viral replication cycle (between 2 and 14 h post-infection)
BVDV [4] = type: cell-based, Bovine Viral Diarrhoea Virus (BVDV); conditions: BVDV incubated with compound at 4 °C for 1 h, then used to infect cells

Compound	CC50 [1] [µM]	EC50 (BVDV [2]) [µM]	melting point [°C]	antiviral activity, time of drug addition (BVDV [3])	virucidal activity (BVDV [4])
COc1cc(C(=O)Nc2ccc(-c3nc4ccccc4[nH]3)cc2)cc(OC)c1OC [Compound 1c, N-(4-(1H-Benzo[d]imidazol-2-yl)phenyl)-3,4,5-trimethoxybenzamide]	28.5	2.2	–	–	–
O=C(Nc1ccc(-c2nc3ccccc3[nH]2)cc1)c1ccc([N+](=O)[O-])cc1 [Compound 1d, N-(4-(1H-Benzo[d]imidazol-2-yl)phenyl)-4-nitrobenzamide]	> 100	> 100	> 300	–	–
O=C(Nc1ccc(-c2nc3ccccc3[nH]2)cc1)c1ccc(Cl)cc1 [Compound 1e, N-(4-(1H-Benzo[d]imidazol-2-yl)phenyl)-4-chlorobenzamide]	> 100	> 100	170.5	–	–
COc1cc(C(=O)Nc2ccc(-c3nc4cc(Cl)ccc4[nH]3)cc2)cc(OC)c1OC [Compound 2c, N-(4-(5-Chloro-1H-benzo[d]imidazol-2-yl)phenyl)-3,4,5-trimethoxybenzamide]	45	0.09	286 to 287	consistent antiviral activity along the viral replication cycle; also recorded: detectable activity	–
O=C(Nc1ccc(-c2nc3cc(Cl)ccc3[nH]2)cc1)c1ccc([N+](=O)[O-])cc1 [Compound 2d, N-(4-(5-Chloro-1H-benzo[d]imidazol-2-yl)phenyl)-4-nitrobenzamide]	> 100	1.9	> 300	–	–
O=C(Nc1ccc(-c2nc3cc(Cl)ccc3[nH]2)cc1)c1ccc(Cl)cc1 [Compound 2e, N-(4-(5-Chloro-1H-benzo[d]imidazol-2-yl)phenyl)-4-chlorobenzamide]	> 100	> 100	> 300	–	–
COc1cc(C(=O)Nc2ccc(-c3nc4cc(Cl)c(Cl)cc4[nH]3)cc2)cc(OC)c1OC [Compound 3c, N-(4-(5,6-Dichloro-1H-benzo[d]imidazol-2-yl)phenyl)-3,4,5-trimethoxybenzamide]	28	1.3	150.6	–	–
O=C(Nc1ccc(-c2nc3cc(Cl)c(Cl)cc3[nH]2)cc1)c1ccc([N+](=O)[O-])cc1 [Compound 3d, N-(4-(5,6-Dichloro-1H-benzo[d]imidazol-2-yl)phenyl)-4-nitrobenzamide]	> 100	53	> 300	–	–
O=C(Nc1ccc(-c2nc3cc(Cl)c(Cl)cc3[nH]2)cc1)c1ccc(Cl)cc1 [Compound 3e, N-(4-(5,6-Dichloro-1H-benzo[d]imidazol-2-yl)phenyl)-4-chlorobenzamide]	60	> 60	161 to 162	–	–
COc1cc(C(=O)Nc2ccc(-c3nc4cc(F)ccc4[nH]3)cc2)cc(OC)c1OC [Compound 4c, N-(4-(5-Fluoro-1H-benzo[d]imidazol-2-yl)phenyl)-3,4,5-trimethoxybenzamide]	> 100	41	171.8	–	–
O=C(Nc1ccc(-c2nc3cc(F)ccc3[nH]2)cc1)c1ccc([N+](=O)[O-])cc1 [Compound 4d, N-(4-(5-Fluoro-1H-benzo[d]imidazol-2-yl)phenyl)-4-nitrobenzamide]	> 100	7.9	> 300	–	–
O=C(Nc1ccc(-c2nc3cc(F)ccc3[nH]2)cc1)c1ccc(Cl)cc1 [Compound 4e, N-(4-(5-Fluoro-1H-benzo[d]imidazol-2-yl)phenyl)-4-chlorobenzamide]	> 100	> 100	138.6	–	–
COc1cc(C(=O)Nc2ccc(-c3nc4cc(F)c(F)cc4[nH]3)cc2)cc(OC)c1OC [Compound 5c, N-(4-(5,6-Difluoro-1H-benzo[d]imidazol-2-yl)phenyl)-3,4,5-trimethoxybenzamide]	> 100	1.4	285 to 287	–	–
O=C(Nc1ccc(-c2nc3cc(F)c(F)cc3[nH]2)cc1)c1ccc([N+](=O)[O-])cc1 [Compound 5d, N-(4-(5,6-Difluoro-1H-benzo[d]imidazol-2-yl)phenyl)-4-nitrobenzamide]	> 100	3.6	> 300	–	–
O=C(Nc1ccc(-c2nc3cc(F)c(F)cc3[nH]2)cc1)c1ccc(Cl)cc1 [Compound 5e, N-(4-(5,6-Difluoro-1H-benzo[d]imidazol-2-yl)phenyl)-4-chlorobenzamide]	> 100	> 100	> 300	–	–
COc1cc(C(=O)Nc2ccc(-c3nc4cc(C)ccc4[nH]3)cc2)cc(OC)c1OC [Compound 6c, N-(4-(5-Methyl-1H-benzo[d]imidazol-2-yl)phenyl)-3,4,5-trimethoxybenzamide]	> 100	0.23	–	–	almost comparable to the untreated but infected ones
Cc1ccc2nc(-c3ccc(NC(=O)c4ccc([N+](=O)[O-])cc4)cc3)[nH]c2c1 [Compound 6d, N-(4-(5-Methyl-1H-benzo[d]imidazol-2-yl)phenyl)-4-nitrobenzamide]	> 100	> 100	–	–	–
Cc1ccc2[nH]c(-c3ccc(NC(=O)c4ccc(Cl)cc4)cc3)nc2c1 [Compound 6e, N-(4-(5-Methyl-1H-benzo[d]imidazol-2-yl)phenyl)-4-chlorobenzamide]	> 100	> 100	> 300	–	–
COc1cc(C(=O)Nc2ccc(-c3nc4cc(C)c(C)cc4[nH]3)cc2)cc(OC)c1OC [Compound 7c, N-(4-(5,6-Dimethyl-1H-benzo[d]imidazol-2-yl)phenyl)-3,4,5-trimethoxybenzamide]	> 100	0.3	272 to 274	–	almost comparable to the untreated but infected ones
Cc1cc2nc(-c3ccc(NC(=O)c4ccc([N+](=O)[O-])cc4)cc3)[nH]c2cc1C [Compound 7d, N-(4-(5,6-Dimethyl-1H-benzo[d]imidazol-2-yl)phenyl)-4-nitrobenzamide]	> 100	> 100	> 300	–	–
Cc1cc2nc(-c3ccc(NC(=O)c4ccc(Cl)cc4)cc3)[nH]c2cc1C [Compound 7e, N-(4-(5,6-Dimethyl-1H-benzo[d]imidazol-2-yl)phenyl)-4-chlorobenzamide]	> 100	> 100	> 300	–	–
C[C@@]1(O)[C@H](O)[C@@H](CO)O[C@H]1n1cnc2c(=O)[nH]c(N)nc21 [NM 108, 2′-C-methylguanosine, reference compound]	> 100	1.5	–	–	–
NC(=O)c1ncn([C@@H]2O[C@H](CO)[C@@H](O)[C@H]2O)n1 [Ribavirin, ribavirin, reference compound]	> 100	18	–	–	–
